{
  "source": "patent US20260083704A1",
  "about": "“LXR MODULATORS WITH BICYCLIC CORE MOIETY FOR TREATING DYSLIPIDEMIAS” (OrsoBio, Inc., priority 2022, published 2026)",
  "key": {"[1]": {"test_system": "CDHFD/sodium nitrate-treated Wistar Han rats", "experiment": "CDHFD/sodium nitrate rat model of NASH with advanced fibrosis", "type": "in vivo", "conditions": "5 mg/kg once daily oral", "text": "Data are shown as mean±SD. N=7-8 animals per group. *p≤0.05, **p≤0.01, ***p≤0.001, ****p≤0.0001 Mann-Whitney test.\nThe CDHFD model of NASH is characterized by reduced phosphatidylcholine synthesis in the liver and impaired TG secretion in VLDL particles, which results in hepatic lipid accumulation, inflammation, oxidative stress, and severe fibrosis. Liver injury in CDHFD-fed rats can be exacerbated by further inducing hypoxia using sodium nitrate (Takayama, Egashira et al. 2009). Wistar Han rats were treated with CDHFD/sodium nitrate for a total of 12 weeks and dosed with Compound pre-6/3 (5 mg/kg once daily by oral gavage) from Weeks 6 to 12. […] Moreover, compared with vehicle treatment, Compound pre-6/3 decreased hepatic hydroxyproline and collagen content by 64% (p≤0.001) and 50% (p≤0.001), respectively (FIG. 8B-C)."}, "[2]": {"test_system": "steatotic human liver organoids (sHLO)", "experiment": "Steatotic human liver organoid (sHLO) model", "type": "cell-based", "conditions": "3 days", "description": "Data in FIG. 2A are obtained from (Ouchi, Togo et al. 2019). Data are shown as mean±SD. n=4 wells per treatment.\nActivity of Compound 21/3 was also evaluated in an induced pluripotent stem cell (iPSC)-derived human liver organoid (HLO) model established from human donors with different genetic backgrounds, including those with known genetic risk variants for NASH (Ouchi, Togo et al. 2019). The HLOs were exposed to high concentrations of lipid to induce a reproducible steatotic NASH phenotype (sHLO) with increased expression of DNL genes, including NR1H3, the gene that encodes LXRα (FIG. 2A) (Ouchi, Togo et al. 2019, Minniti, Pedrelli et al. 2020). […] Mutations in GCKR have been associated with increased circulating lipids, hepatic DNL, and diseases including diabetes and NASH (Fernandes Silva, Vangipurapu et al. 2019)."}, "[3]": {"experiment": "Plasma and liver exposures in mice dosed 1 mg/kg by oral gavage", "type": "in vivo", "conditions": "1 mg/kg oral gavage", "description": "Data are shown as mean±SD. N=3-8 wells per treatment.\nThe efficacy of Compound 21/3 and Compound pre-6/3 were evaluated in diet-induced obese (DIO) mouse and rat models."}, "[4]": {"test_system": "human primary Upcyte hepatocytes", "experiment": "Lipid accumulation in human primary Upcyte hepatocytes (Bodipy staining)", "type": "cell-based", "conditions": "Hepatocyte, 120 h, glucose 25 mM and palmitate, 5 days", "description": "Inhibition of LXR activity in hepatocytes is hypothesized to reduce intracellular TG accumulation via inhibition of DNL. The effects of Compound 21/3 on lipid accumulation in human primary Upcyte® hepatocytes were evaluated. Briefly, human primary Upcyte hepatocytes were cultivated in media containing high concentrations of glucose (25 mM) and palmitate ([…]) for 5 days in the presence or absence of Compound 21/3, and intracellular lipids were measured by Bodipy™ staining. […] Data are shown as mean±SD. n=2 wells per treatment; N=8 experiments."}, "healthy subjects": {"test_system": "healthy subjects", "experiment": "Phase 1 study, MAD cohorts: serum lipid parameters by NMR LipoProfile", "type": "in vivo, human", "conditions": "Day 1 to Day 14", "description": "(§1) Lipid parameters, including apolipoprotein B (apoB), were evaluated by NMR LipoProfile® (Labcorp, Burlington, NC. Plasma ApoC3 and ANGPTL3 were evaluated by ELISA (360biolabs, Melbourne, Australia). Peripheral RCT (reverse cholesterol transport) were evaluated by assessing changes in expression of ABCA1/ABCG1 in PBMCs, predose and 4 hours postdose on Days 1 and 14 (Gnomix, Bedford Park, Australia).\nMethods. In a randomized, double-blind, placebo (PBO)-controlled Phase 1 study, healthy subjects (n=8/2 Compound 21/3 vs PBO/cohort) received single ascending doses (SAD) of Compound 21/3 (0.5, 2, 6, 12, or 20 mg) or multiple ascending doses (MAD) QD for 14 days (0.5, 2, 6, or 12 mg) while fed or 6 mg fasted. Safety, PK, serum lipid parameters by NMR LipoProfile®, and gene expression in PBMCs were evaluated.\nResults. The proportion of subjects with adverse events (AEs) was 60% with PBO and 13-50% with Compound 21/3 in the SAD cohorts (n=50), and 40% and 13-88%, respectively, in the MAD cohorts (n=50). All AEs were mild except an unrelated, Grade 2 thrombophlebitis in a subject on Compound 21/3 2 mg. […] With fasted dosing, exposures were similar on Days 1 and 14 and ˜3-fold higher than with fed dosing. […] In FIG. 13A-13H, figures on graphs indicate median relative (%) change in predose NMR Lipoprofile® parameter from Day 1 to Day 14. […]"}, "ABCA1/ABCG1 in PBMCs": {"test_system": "ABCA1/ABCG1 in PBMCs", "experiment": "Phase 1 study, MAD cohorts: expression of ABCA1/ABCG1 in PBMCs (peripheral RCT)", "type": "in vivo, human", "conditions": "healthy subjects, predose and 4 h postdose on Day 14", "description": "as §1\nIn FIG. 14A to 14C, ApoC3 and ANGPTL3 measured 12 h postdose. RCT assessed predose and 4 h postdose on Day 14."}},
  "note": "Entries after “also recorded” stand apart in the source; their conditions may differ.",
  "data": [
    {"smiles": "N#Cc1cccc(C#N)c1-c1c(-c2cccc(-c3ccc(C(=O)O)cc3Cl)c2)n(S(=O)(=O)c2ccc(C(F)F)cc2)c2ccc(F)cc12", "note": "[pre-6/3]", "values": [
      {"measurement": "fibrosis (picrosirus red staining)", "setting": "[1]; Weeks 6 to 12", "value": "significantly decreased"},
      {"measurement": "hepatic expression of DNL genes (Srebp1c, Scd1, Fasn) and fibrogenesis genes (Timp1, Col1a1, Acta2)", "setting": "[1]; Weeks 6 to 12", "value": "decreased"},
      {"measurement": "liver TG content", "setting": "[1]; Weeks 6 to 12", "value": "decreased"},
      {"measurement": "decrease of hepatic collagen content compared with vehicle", "setting": "[1]; Weeks 6 to 12, p≤0.001", "value": 50, "unit": "%"},
      {"measurement": "decrease of hepatic hydroxyproline content compared with vehicle", "setting": "[1]; Weeks 6 to 12, p≤0.001", "value": 64, "unit": "%"}
    ]},
    {"smiles": "N#Cc1cccc(C#N)c1-c1c(-c2cccc(-c3ccc(C(=O)NCC(=O)O)cc3Cl)c2)n(S(=O)(=O)c2ccc(C(F)F)cc2)c2ccc(F)cc12", "note": "[Compound 21/3]", "values": [
      {"measurement": "intracellular lipid content", "setting": "[2]; patient-derived sHLOs", "value": "dose-dependently reduced"},
      {"measurement": "expression of DNL-associated genes", "setting": "[2]; sHLOs from GCKR wild-type (CC) or mutant (TT) carriers", "value": "suppressed"},
      {"measurement": "liver exposures compared with Compound pre-6/3", "setting": "[3]", "value": "higher and sustained liver exposures"},
      {"measurement": "plasma exposures compared with Compound pre-6/3", "setting": "[3]", "value": "lower plasma exposures"},
      {"measurement": "EC50", "setting": "[4]", "value": "289 ± 34", "unit": "nM"},
      {"measurement": "HDL-C", "setting": "healthy subjects", "value": "not HDL-C"},
      {"measurement": "serum triglycerides, total and LDL-C, total and small LDL particles, TG/HDL-C ratio", "setting": "healthy subjects", "value": "Significant, dose-dependent reductions; also recorded: significant, dose-dependent improvements"},
      {"measurement": "peripheral RCT: expression of LXR target genes in PBMCs incl. ABCA1/ABCG1", "setting": "ABCA1/ABCG1 in PBMCs", "value": "does not impact; also recorded: did not impact"}
    ]}
  ]
}
